Patent publication US20220202801A1, “USE OF COMPOUND IN PREPARATION OF DRUG FOR TREATING ATHEROSCLEROSIS” (GenEros Biopharma Ltd., priority 2019, published 2022)
“Also recorded” adds a separate entry of the source.

What was measured:
[1] = system: atherosclerotic lesions in ApoE knockout mice; assay: Aortic HE and oil red O staining, atherosclerotic lesion scores (Example 1); type: in vivo; settings: for Mild n (number of animal cases with mild lesions) / Moderate n (number of animal cases with moderate lesions) / No lesion n (number of animal cases) / Severe n (number of animal cases with severe lesions): of 8 animals; for animals that had atherosclerosis (histological observation): of 8 aortas examined
Description: (§1) Methods: SPF grade C57BL/6 ApoE −/−model mice were provided by Guangdong Medical Experimental Animal Center, laboratory animal production license No. SOCK (Guangdong) 2013-0002. Laboratory animal quality certificate number: 44007200048196). Mice were half male and half female, aged 8 to 12 weeks, and 72 animals in total. After four weeks of housing in a SPF-level animal facility, animals with less body weights were disposed. A total of 64 animals were randomly divided into 8 groups, 8 in each group, fed with 10% high-fat food, and received with different treatments. Animals were observed and administered with the medicines by gavage once daily. The body weights were measured once a week and continued for 58 days. […] The test sample was dissolved in dimethyl sulfoxide solution and prepared with 30% PEG300.
(§2) After blood collection, the animals were sacrificed, and the aortic arch together with the heart and thoracic aorta were fixed with neutral formaldehyde and subject to pathological examination. The abdominal aorta was collected and quick-frozen in liquid nitrogen, and stored at −80° C.
a) HE staining: aortic arch was sliced and HE stained. The plaques were observed under optical microscope.
b) Oil red O staining: aortic arch was sliced and oil red O stained. The plaques were observed under optical microscope.

VCAM-1 = assay: Immunohistochemistry of aortic wall, VCAM-1; type: in vivo, mice; settings: for aorta (VCAM-1) signal expression in blood vessels: IHC-P×400, single animal micrograph; for VCAM-1 average optical density: aortic wall
Description: as §1, §2
(§3) c) Immunohistochemistry: The thoracic aorta was sliced and detected by immunohistochemistry for the expression of CD68, intercellular adhesion molecule-1 (ICAM-1), and vascular cell adhesion Molecule-1 (VCAM-1).

CD68 = assay: Immunohistochemistry of aortic wall, CD68; type: in vivo, mice; settings: for aorta (CD68) signal expression in blood vessels: IHC-P×400, single animal micrograph; for CD68 average optical density: aortic wall
Description: as §1, §2, §3

ApoE knockout mice [2] = assay: Blood lipid metabolism TG, TCHO, HDL-c, LDL-c (Example 2); type: in vivo
ApoE knockout mice [3] = assay: Four blood lipids in serum of ApoE knockout mice (Example 1); type: in vivo; settings: for HDL-C / LDL-C / TC / TG: serum
Description: as §1
At the end of the experiment, animals were anesthetized with pentobarbital sodium. Blood was collected from the orbital venous plexus, and centrifuged at 3000 r/min at a low temperature for 10 min to separate the serum. The levels of total cholesterol TC, triglyceride TG, high-density lipoprotein HDL-C, and low-density lipoprotein LDL-C were measured, and the remaining serum was stored in a refrigerator at −80° C.
Statistical analysis: Data were expressed as the mean plus or minus the standard deviation (x± s), and analyzed by SPSS21.0 statistical software. […] The level of test is α=0.05.

[4] = half male and female, 1 mg/kg body weight
[5] = half male and female, 2 mg/kg body weight
[6] = half male and female, 5 mg/kg body weight
[7] = ♂, 5 mg/kg gavage QD, 58 days, 5 mg/kg
[8] = ♂, 5 mg/kg gavage QD, 58 days, listed as sample B, 5 mg/kg

O=C(N/N=C/c1coc2ccccc2c1=O)c1cccnc1 [Sample B]
formation of arterial plaque (pathological results) ([1]; medium doses, preventive treatment): could delay the formation of arterial plaque in ApoE knockout mice to a certain extent
Mild n (number of animal cases with mild lesions) ([1]; 1 mg/kg body weight): 2
Moderate n (number of animal cases with moderate lesions) ([1]; 1 mg/kg body weight): 2
No lesion n (number of animal cases) ([1]; 1 mg/kg body weight): 1
Severe n (number of animal cases with severe lesions) ([1]; 1 mg/kg body weight): 3
Mild n (number of animal cases with mild lesions) ([1]; 2 mg/kg body weight): 3
Moderate n (number of animal cases with moderate lesions) ([1]; 2 mg/kg body weight): 1
No lesion n (number of animal cases) ([1]; 2 mg/kg body weight): 4
Severe n (number of animal cases with severe lesions) ([1]; 2 mg/kg body weight): 0
Mild n (number of animal cases with mild lesions) ([1]; 5 mg/kg body weight): 3
Moderate n (number of animal cases with moderate lesions) ([1]; 5 mg/kg body weight): 2
No lesion n (number of animal cases) ([1]; 5 mg/kg body weight): 1
Severe n (number of animal cases with severe lesions) ([1]; 5 mg/kg body weight): 2
animals that had atherosclerosis (histological observation) ([1]; 1 mg/kg): 7 cases
animals that had atherosclerosis (histological observation) ([1]; 2 mg/kg): 4 cases
animals that had atherosclerosis (histological observation) ([1]; 5 mg/kg): 7 cases
effect on atherosclerotic lesions compared with the statin group ([1]; overall, aortic pathology Example 1): equivalent to or better than that of the statin group
Scores (atherosclerotic lesion score, average of the group) ([1]; score 0-3 per Table 8, 1 mg/kg body weight): 1.88 ± 1.13
Scores (atherosclerotic lesion score, average of the group) ([1]; score 0-3 per Table 8, 2 mg/kg body weight): 0.62 ± 0.74
Scores (atherosclerotic lesion score, average of the group) ([1]; score 0-3 per Table 8, 2 mg/kg body weight, listed as sample B): lower than the model control group
Scores (atherosclerotic lesion score, average of the group) ([1]; score 0-3 per Table 8, 5 mg/kg body weight): 1.62 ± 1.06
aorta (VCAM-1) signal expression in blood vessels (VCAM-1; 1 mg/kg): low to medium
aorta (VCAM-1) signal expression in blood vessels (VCAM-1; 2 mg/kg): low to medium
aorta (VCAM-1) signal expression in blood vessels (VCAM-1; 5 mg/kg): low to medium
VCAM-1 average optical density (VCAM-1; 1 mg/kg gavage QD): 1.24 ± 0.99 ×10^−2
VCAM-1 average optical density (VCAM-1; 2 mg/kg gavage QD, 2 mg/kg): 1.54 ± 1.11 ×10^−2
VCAM-1 average optical density (VCAM-1; 2 mg/kg gavage QD, listed as Nib2, 2 mg/kg): reduced expression
VCAM-1 average optical density (VCAM-1; 5 mg/kg gavage QD): 1.69 ± 0.85 ×10^−2
aorta (CD68) signal expression in blood vessels (CD68; 1 mg/kg): low to medium
aorta (CD68) signal expression in blood vessels (CD68; 2 mg/kg): low to medium
aorta (CD68) signal expression in blood vessels (CD68; 5 mg/kg): low to medium
CD68 average optical density (CD68; 1 mg/kg gavage QD): 1.85 ± 1.51 ×10^−2
CD68 average optical density (CD68; 2 mg/kg gavage QD): 2.22 ± 0.99 ×10^−2
CD68 average optical density (CD68; 5 mg/kg gavage QD): 2.83 ± 1.40 ×10^−2
effect on high-density lipoprotein (HDL-c) level compared with the vehicle group (ApoE knockout mice [2]): no obvious effect
effect on low-density lipoprotein (LDL-c) level compared with the vehicle group (ApoE knockout mice [2]): significantly reduce
effect on total cholesterol (TCHO) level compared with the vehicle group (ApoE knockout mice [2]): significantly reduce
effect on triglyceride (TG) level compared with the vehicle group (ApoE knockout mice [2]): significantly reduce
regulation on blood lipid levels (overall) (ApoE knockout mice [3]; Example 1, overall): have the effect of improving blood lipids
HDL-C (ApoE knockout mice [3]; [4]): 1.75 ± 0.69 mmol/L
LDL-C (ApoE knockout mice [3]; [4]): 6.19 ± 2.64 mmol/L
TC (ApoE knockout mice [3]; [4]): 19.56 ± 5.66 mmol/L
TG (ApoE knockout mice [3]; [4]): 0.91 ± 0.69 mmol/L
HDL-C (ApoE knockout mice [3]; [5]): 1.68 ± 0.39 mmol/L
LDL-C (ApoE knockout mice [3]; [5]): 5.71 ± 1.80 mmol/L
TC (ApoE knockout mice [3]; [5]): 19.01 ± 4.64 mmol/L
TG (ApoE knockout mice [3]; [5]): 0.81 ± 0.30 mmol/L
HDL-C (ApoE knockout mice [3]; [6]): 1.71 ± 0.45 mmol/L
LDL-C (ApoE knockout mice [3]; [6]): 5.96 ± 2.17 mmol/L
TC (ApoE knockout mice [3]; [6]): 19.76 ± 5.49 mmol/L
TG (ApoE knockout mice [3]; half male and female, 5 mg/kg body weight, 5 mg/kg): 0.74 ± 0.35 mmol/L
TG (ApoE knockout mice [3]; half male and female, 5 mg/kg body weight, listed as sample B, 5 mg/kg): lower; also recorded: decreased
LDL-C (ApoE knockout mice [3]; ♀, 1 mg/kg gavage QD, 58 days): 4.32 ± 0.59 mmol/L
TC (ApoE knockout mice [3]; ♀, 1 mg/kg gavage QD, 58 days): 15.50 ± 2.01 mmol/L
TG (ApoE knockout mice [3]; ♀, 1 mg/kg gavage QD, 58 days): 0.57 ± 0.08 mmol/L
HDL-C (ApoE knockout mice [3]; ♀, 1 mg/kg gavage QD, 58 days, 1 mg/kg): 1.32 ± 0.18 mmol/L
HDL-C (ApoE knockout mice [3]; ♀, 1 mg/kg gavage QD, 58 days, listed as sample B, 1 mg/kg): lower
LDL-C (ApoE knockout mice [3]; ♀, 2 mg/kg gavage QD, 58 days): 4.40 ± 0.96 mmol/L
TC (ApoE knockout mice [3]; ♀, 2 mg/kg gavage QD, 58 days): 15.49 ± 2.98 mmol/L
TG (ApoE knockout mice [3]; ♀, 2 mg/kg gavage QD, 58 days): 0.58 ± 0.10 mmol/L
HDL-C (ApoE knockout mice [3]; ♀, 2 mg/kg gavage QD, 58 days, 2 mg/kg): 1.36 ± 0.16 mmol/L
HDL-C (ApoE knockout mice [3]; ♀, 2 mg/kg gavage QD, 58 days, listed as sample B, 2 mg/kg): lower
LDL-C (ApoE knockout mice [3]; ♀, 5 mg/kg gavage QD, 58 days): 4.61 ± 0.56 mmol/L
TC (ApoE knockout mice [3]; ♀, 5 mg/kg gavage QD, 58 days): 16.21 ± 1.98 mmol/L
TG (ApoE knockout mice [3]; ♀, 5 mg/kg gavage QD, 58 days): 0.65 ± 0.24 mmol/L
HDL-C (ApoE knockout mice [3]; ♀, 5 mg/kg gavage QD, 58 days, 5 mg/kg): 1.38 ± 0.08 mmol/L
HDL-C (ApoE knockout mice [3]; ♀, 5 mg/kg gavage QD, 58 days, listed as sample B, 5 mg/kg): lower
HDL-C (ApoE knockout mice [3]; ♂, 1 mg/kg gavage QD, 58 days): 2.18 ± 0.75 mmol/L
LDL-C (ApoE knockout mice [3]; ♂, 1 mg/kg gavage QD, 58 days): 8.07 ± 2.56 mmol/L
TC (ApoE knockout mice [3]; ♂, 1 mg/kg gavage QD, 58 days): 23.63 ± 5.16 mmol/L
TG (ApoE knockout mice [3]; ♂, 1 mg/kg gavage QD, 58 days): 1.26 ± 0.89 mmol/L
LDL-C (ApoE knockout mice [3]; ♂, 2 mg/kg gavage QD, 58 days): 7.03 ± 1.41 mmol/L
TC (ApoE knockout mice [3]; ♂, 2 mg/kg gavage QD, 58 days): 22.54 ± 2.88 mmol/L
TG (ApoE knockout mice [3]; ♂, 2 mg/kg gavage QD, 58 days): 1.05 ± 0.25 mmol/L
HDL-C (ApoE knockout mice [3]; ♂, 2 mg/kg gavage QD, 58 days, 2 mg/kg): 2.00 ± 0.23 mmol/L
HDL-C (ApoE knockout mice [3]; ♂, 2 mg/kg gavage QD, 58 days, listed as sample B, 2 mg/kg): lower
LDL-C (ApoE knockout mice [3]; ♂, 5 mg/kg gavage QD, 58 days): 7.31 ± 2.41 mmol/L
TC (ApoE knockout mice [3]; ♂, 5 mg/kg gavage QD, 58 days): 23.32 ± 5.72 mmol/L
HDL-C (ApoE knockout mice [3]; [7]): 2.04 ± 0.42 mmol/L
TG (ApoE knockout mice [3]; [7]): 0.83 ± 0.46 mmol/L
HDL-C (ApoE knockout mice [3]; [8]): lower
TG (ApoE knockout mice [3]; [8]): lower
